# Marks after values point to notes of the source that are not given here.
# Assays:
# Type in all cases: in vivo, rat
# male Wistar rats [1] = assay: Metabolic syndrome model in rats (cafeteria diet)
# From the text: Metabolic syndrome was simulated in male Wistar rats (260-280 g) by keeping animals on a high-fat diet (“cafeteria diet”) for 12 weeks. The “cafeteria diet” was balanced according to Current Protocols in Pharmacology [Current Protocols in Pharmacology (2005) Animal Models of Disease//Contributed by Petter Hedlund, Kenshi Matsumoto, and Karl-Erik Andersson]. The diet contained 25-35% of fats and 25-30% of digestible carbohydrates in addition to the standard diet of rodents. Treamid was administered at a dose of 0.5 mg/kg intragastrically once daily, every day from Week 7 to Week 11 of the diet. Reference drug Metformin was administered at a dose of 200 mg/kg intragastrically according to the same regimen.
# The development of pathology and a therapeutic effect of Treamid were estimated by the following parameters: blood biochemical parameters (glucose, cholesterol, triglycerides (TG), HDL, LDL, atherogenicity index), glucose tolerance test, visceral fat weight, total number and percentage of motile sperm forms.
# Glucose was determined with an OneNouch Select glucometer (Switzerland).
# The levels of triglycerides, TCh and HDL were determined by using a diagnostic kit (Olvex Diagnosticum, Russia).
# The level of LDL was determined by the formula 2. LDL=TCh−(HDL+TG/2.2) (1),
# The atherogenicity index (AI) was calculated by the formula 3. AI=(TCh−HDL)/HDL (2),
# The atherogenicity index was calculated for each animal individually, and then the arithmetic mean value of the group was calculated.
# For the analysis of sperm, the animals were anesthetized with intraperitoneal injection of a mixture of Zolletil and Xyla (0.2 ml of Zoletil+0.8 ml Xyla) in a volume of 70 μl/100 g of weight. Epididymis was isolated. The epididymis head was cut off from the tail, weighed, 5 incisions were made (to improve the sperm yield), and placed in a tube containing 10 ml of phosphate buffered saline heated to 37° C. The tube was held at 37° C. for 10 minutes. Then, the tube was shaken on a shaker, 20 μl of the liquid was taken, applied to a glass slide heated to 37° C., and the number of motile sperm cells was assessed under a microscope. The calculation was performed up to 100 sperm cells.
# The total number of sperm cells in a test tube with epididymis was calculated as follows: 20 μl of the liquid was taken after shaking and added to a tube containing 400 μl of physiological saline. After shaking the tubes, their contents (20 μl) were taken out and introduced into Goryaev chamber. The number of sperm cells was counted in 100 large squares. The number of sperm cells in the head of epididymis was calculated by the formula: Number of sperm cells=number of sperm cells in 100 large squares of Goryaev chamber*0.525(factor from the calculation of the dilution and the volume of Goryaev chamber)/weight of the epididymis head.
# male rats = conditions: rat, in vivo
# Description: The latter was simulated by a single injection of cytostatic drug Paclitaxel (Mitotax, Dr. Reddy's, India) to male rats (3 months of age). The choice of the drug was due to the fact that it is one of the medications that damage the precursors of spermatogenesis—stem cells.
# Paclitaxel was administered to the animals of the control and test groups once intravenously at the maximum tolerated dose of 7.6 mg/kg. Treamid was administered to the animals of the experimental groups intragastrically at a dose of 5 mg/kg in the form of a suspension in 2% starch mucus for 15 days a month after the administration of Paclitaxel. The control animals received an equivalent volume of the solvent (2% starch mucus), instead of the test compound.
# The colony-stimulating activity of the cells of the microenvironment of spermatogenic tissue (production of humoral regulators of spermatogenesis by Sertoli cells) was determined as follows. The above-described procedure was used to prepare a testis homogenate from which an adherent fraction of cells was isolated. The adherent cells were cultured for 24 hours in complete culture medium at 37° C., 5% CO2 and 100% air humidity. A day later, the supernatant was collected, which was stored at a temperature of […]. The level of humoral factors of spermatogenesis in the supernatant was tested by the test system of CFU-Sp of the testes of intact rats. […]
# Wistar rats = assay: Pair-test of sexual behavior, rats of late reproductive (14 months) and presenile (19 months) age; conditions: 14-month rats
# Description: (§1) Erectile dysfunction was simulated by using animals of late and senile reproductive age (14-19 months). Suppression of sexual motivation was simulated by using animals of late reproductive age (14 months).
# Experiments on studying the effect of Treamid on copulatory activity were carried out on 76 Wistar rats (14 months and 19 months of age). Treamid was administered intragastrically for 14 days at a dose of 5 mg/kg. Reference drug Sildenafil (100 mg, PFIZER PGM, France) was also administered intragastrically, which corresponded to clinical use, at a dose of 3 mg/kg twice a week. The sexual activity was estimated by the pair-test of sexual behavior. For this purpose female rats in the estrus stage caused by a preliminary 4-fold injection of the Synestrel were involved in the experiment. The effectiveness of Treamid was estimated by the following indices: latency until the first mating attempt (LFM), the number of mating attempts (MN), and the number of ejaculations (EN). The obtained data were compared with those of the same animals before the administration of Treamid (the first test) and with the data in the control group (the second test).
# male Wistar rats [2] = assay: Pair-test of sexual behavior, seasonal suppression of copulatory activity
# Description: Seasonal suppression of reproductive activity was simulated by carrying out the experiment in the winter period (end of December). As a background group, intact animals (3 months of age) were tested in June.
# The experiments were carried out on 27 male Wistar rats of reproductive age (3 months). Treamid at a dose of 5 mg/kg and reference drug Sildenafil (at a dose of 3 mg/kg) were administered intragastrically […], once daily for 15 days. The sexual activity was estimated by the pair-test of sexual behavior. The test was carried out twice: before administration and one hour after the last administration of Treamid. The rats of the control groups receiving the solvent were tested at the same time as the animals of the experimental groups.
# The experiment also comprised the use of female rats in the estrus stage caused by a preliminary 4-fold injection of the Synestrel. The effectiveness of Treamid was estimated by the following indices: latency until the first mating attempt (LFM), the number of mating attempts (MN), and the number of ejaculations (EN). The obtained data were compared with those of the same animals before the administration of the tested compound and with the data of the control group (the second test).
# male Wistar rats [3] = assay: Sexual incentive motivation test, rats of late reproductive age; conditions: 14-month rats
# Description: as §1
# Experiments on studying the effect of Treamid on sexual motivation were carried out on 40 male Wistar rats (14 months of age). A model for a targeted search for novel agents for the therapy of this pathology was used as an experimental model of sexual incentive motivation in rats [Xi Chu, Ekaterina S. Zhavbert, Julia L. Dugina, Irina A. Kheyfets, Svetlana A. Sergeeva, Oleg I. Epstein, Anders Agmo Sindenafil and a compound stimulating endothelial NO synthase modity sexual incentive motivation and copulatory behavior in male wistar and fisher 344//J Sex Med.—2008.—5.—P. 2085-2009]. This model is based on the fact that rats are social animals and seek not only sexual, but also social contacts. The assessment of sexual motivation involves determining the time spent near a sexual stimulus and the score of preference in animals without direct contact with “social” and “sexual” stimuli. The sexual stimulus was a female rat in estrus stage, and the social stimulus was a male rat.
# [4] = Treamid 0.5 mg/kg, Metformin 200 mg/kg intragastrically Week 7-11 of high-fat diet
# [5] = high-fat diet for 12 weeks, Treamid 0.5 mg/kg, Metformin 200 mg/kg
# [6] = high-fat diet, Treamid 0.5 mg/kg, Metformin 200 mg/kg
# [7] = First test, before administration of drugs
# [8] = Second test, after 14-day administration course, Treamid 5 mg/kg, Sildenafil 3 mg/kg
# [9] = first test, before administration, winter period
# [10] = second test, one hour after last administration, Treamid 5.0 mg/kg, Sildenafil 3 mg/kg intragastrically, 15 days
# [11] = Second test, after administration of the test compound, Treamid 5 mg/kg, Sildenafil 3 mg/kg, 14 days
# [12] = first test, before administration
smiles,measurement,setting,value
"CN(C)C(=N)N=C(N)N [Metformin, reference compound]","Glucose level in the blood of male rats, mmol/L","male Wistar rats [1]; 3 weeks after the drug administration, Treamid 0.5 mg/kg, Metformin 200 mg/kg",6.9 ± 0.3*& mmol/L
same,"Glucose level in the blood of male rats, mmol/L","male Wistar rats [1]; 5 weeks after the drug administration, Treamid 0.5 mg/kg, Metformin 200 mg/kg",8.0 ± 0.2*& mmol/L
same,"Relative weight of visceral fat, Fat near the intestine",male Wistar rats [1]; [4],1.07 ± 0.08 % based on body weight
same,"Relative weight of visceral fat, Fat near the kidneys",male Wistar rats [1]; [4],0.52 ± 0.05& % based on body weight
same,"Relative weight of visceral fat, Fat near the testes",male Wistar rats [1]; [4],0.98 ± 0.12 % based on body weight
same,"Relative weight of visceral fat, Total fat",male Wistar rats [1]; [4],2.57 % based on body weight
same,Glucose level in the blood of male rats,male Wistar rats [1]; before administration of drugs (Week 6 of diet),6.2 ± 0.1 mmol/L
same,Atherogenicity index,male Wistar rats [1]; [5],0.6 ± 0.1&
same,"HDL, mM/l",male Wistar rats [1]; [5],1.8 ± 0& mM/l
same,"LDL, mM/l",male Wistar rats [1]; [5],0.7 ± 0.3& mM/l
same,"Total cholesterol, mM/l",male Wistar rats [1]; [5],2.8 ± 0.3 mM/l
same,"Triglycerides, mM/l",male Wistar rats [1]; [5],0.7 ± 0.1& mM/l
same,Percentage of motile sperm forms,male Wistar rats [1]; [6],24.43 ± 3.99 %
same,Total number of sperm cells,male Wistar rats [1]; [6],276.6 ± 44.6&
same,"Glucose level in the blood of male rats, mmol/L","male Wistar rats [1]; one week after the drug withdrawal, Treamid 0.5 mg/kg, Metformin 200 mg/kg",7.8 ± 0.6& mmol/L
same,increase of the percentage of motile sperm forms,male Wistar rats [1]; vs. high-fat diet control,did not affect
same,increase of the total number of sperm cells,male Wistar rats [1]; vs. high-fat diet control,1.8 times
"CC(=O)O[C@H]1C(=O)[C@@]2(C)[C@H]([C@H](OC(=O)c3ccccc3)[C@]3(O)C[C@H](OC(=O)[C@H](O)[C@@H](NC(=O)c4ccccc4)c4ccccc4)C(C)=C1C3(C)C)[C@]1(OC(C)=O)CO[C@@H]1C[C@@H]2O [Paclitaxel, reference compound]","colony stimulating activity of conditioned media of testis cells, CFU-Sp, per 2 × 10^5 (M; SD, n = 10)",male rats,3.0; 0.53* per 2 × 10^5
"CCCc1nn(C)c2c(=O)[nH]c(-c3cc(S(=O)(=O)N4CCN(C)CC4)ccc3OCC)nc12 [Sildenafil, reference compound]",EN (the number of ejaculations),Wistar rats; [7],0.00 ± 0.00
same,LFM (latency until the first mount),Wistar rats; [7],610.08 ± 88.34
same,MN (the number of mounts),Wistar rats; [7],1.58 ± 0.56
same,EN (the number of ejaculations),Wistar rats; [8],0.00 ± 0.00
same,MN (the number of mounts),Wistar rats; [8],6.27 ± 1.27⋄#
same,LFM (latency until the first mount),"Wistar rats; Second test, after 14-day administration course, Treamid 5 mg/kg, Sildenafil 3 mg/kg intragastrically",171.09 ± 78.08⋄*
same,effect on sexual behavior under seasonal suppression,male Wistar rats [2]; Sildenafil 3 mg/kg,did not have a significant effect
same,LFM,male Wistar rats [2]; [9],473.00 ± 137.58 s
same,"the number of ejaculations, %",male Wistar rats [2]; [9],0%
same,"the number of mounts, abs.",male Wistar rats [2]; [9],3.33 ± 1.27 abs.
same,LFM,male Wistar rats [2]; [10],308.22 ± 117.73 s
same,"the number of ejaculations, %",male Wistar rats [2]; [10],0%
same,"the number of mounts, abs.",male Wistar rats [2]; [10],5.67 ± 1.76 abs.
same,"A, sec (time spent in the sexual stimulus zone)",male Wistar rats [3]; [11],143.18 ± 48.64 s
same,"PS, s. u. (preference score)",male Wistar rats [3]; [11],0.41 ± 0.12 s. u.
same,effect on sexual motivation,"male Wistar rats [3]; Treamid 5 mg/kg, Sildenafil 3 mg/kg",had no effect
same,"A, sec (time spent in the sexual stimulus zone)",male Wistar rats [3]; [12],166.83 ± 26.27 s
same,"B, sec (time spent in the social stimulus zone)",male Wistar rats [3]; [12],113.58 ± 22.60 s
same,"PS, s. u. (preference score)",male Wistar rats [3]; [12],0.59 ± 0.06 s. u.
